Results on 31 molecules are retold here after patent US10047105B2, “Gyrase inhibitors” (Merck Sharp & Dohme Corp., priority 2009, dated 2018).

In brackets after ≈: the same amount, converted by molar mass. Where only a bound is given, the exact number is not on record here.

Common to all, as to assay type: cell-based
One test concerns S. aureus ATCC 13709. Put plainly: MIC, antibacterial potency, S. aureus. The note with it: S. aureus (SA); in µg/mL.
The subject of the next test is S. pneumoniae ATCC 51916. Nature of the test: MIC, S. pneumoniae. The note with it: S. pneumoniae (Spn52); in µg/mL.
The subject of a further test is E. coli 8 ATCC 25922. Nature of the test: MIC, E. coli 8 (wt). The note with it: E. coli 8 (EC8).

Consider `CCc1[nH]c2nc(Sc3ccc4cc(C#N)c[n+]([O-])c4c3)nc(N3CC4C(N)C4C3)c2c1Cl` (stereo not drawn) [701,010], for which, in the test with S. aureus ATCC 13709, the “MIC, SA” value is “<=0.5”. For the same molecule, in the test with S. pneumoniae ATCC 51916, the “MIC Spn52” value came to 1. Further, the MIC EC8 against E. coli 8 ATCC 25922 was over 16 µg/mL.

For the molecule `CCc1[nH]c2nc(Oc3ccc4nccnc4c3)nc(N3CC4C(C3)C4NC(C)=O)c2c1Cl` (stereo not drawn) [701,012], the “MIC, SA” value against S. aureus ATCC 13709 stood at 1. Moreover, in the test on S. pneumoniae ATCC 51916, the “MIC Spn52” value is given as 2. Also, the MIC EC8 with E. coli 8 ATCC 25922 is over 64 µg/mL.

In the case of `CCc1[nH]c2nc(Sc3ccc4nc(N5CC(N)C5)cnc4c3)nc(N3C[C@@H]4C(N)[C@@H]4C3)c2c1Cl` (stereo partly drawn) [701,013], the “MIC, SA” value against S. aureus ATCC 13709 amounted to 1. The “MIC Spn52” value against S. pneumoniae ATCC 51916 turned out to be 2. Besides, in the test with E. coli 8 ATCC 25922, the MIC EC8 came out at 16 µg/mL (≈ 31.5 µM).

As for `CCc1[nH]c2nc(Sc3ccc4nc(N5CC(N)C5)cnc4c3)nc(N3CC[C@@H](N)C3)c2c1Cl` [701,014], the “MIC, SA” value with S. aureus ATCC 13709 came to 4. For the same molecule, in the test on S. pneumoniae ATCC 51916, the “MIC Spn52” value is 8. This molecule also came in with an MIC EC8 against E. coli 8 ATCC 25922 of 32 µg/mL (≈ 64.5 µM).

As for `CCc1[nH]c2nc(Sc3cc(C(=O)NOC)c4ncccc4c3)nc(N3CC[C@@H](N)C3)c2c1Cl` [701,015], the “MIC, SA” value against S. aureus ATCC 13709 is “<=0.5”. The “MIC Spn52” value against S. pneumoniae ATCC 51916 worked out at 2. The MIC EC8 with E. coli 8 ATCC 25922 is over 64 µg/mL.

Consider `CCc1[nH]c2nc(Sc3cnc4cccnc4c3)nc(N3C[C@H](N)[C@H](C(=O)N4CC(N)C4)C3)c2c1Cl` [701,016], for which the “MIC, SA” value against S. aureus ATCC 13709 is recorded as over 64. Besides, the “MIC Spn52” value against S. pneumoniae ATCC 51916 is reported as over 64. In the test with E. coli 8 ATCC 25922, the MIC EC8 is over 64 µg/mL.

Turning to `CCc1[nH]c2nc(Sc3cnc4cccnc4c3)nc(N3C[C@H](N)[C@H](C(=O)NCC(C)C)C3)c2c1Cl` [701,017], the “MIC, SA” value in the test on S. aureus ATCC 13709 is listed as 2. In the test with S. pneumoniae ATCC 51916, the “MIC Spn52” value is given as 1. In the test on E. coli 8 ATCC 25922, the MIC EC8 was over 64 µg/mL.

For `CCc1[nH]c2nc(Sc3cnc4cccnc4c3)nc(N3C[C@H](N)[C@H](C(=O)NCC(C)O)C3)c2c1Cl` (stereo partly drawn) [701,018], the “MIC, SA” value with S. aureus ATCC 13709 is over 64. For the same molecule, the “MIC Spn52” value against S. pneumoniae ATCC 51916 is 16. This molecule had an MIC EC8 against E. coli 8 ATCC 25922 of over 64 µg/mL.

Regarding `CCc1[nH]c2nc(Sc3cnc4cccnc4c3)nc(N3C[C@H](N)[C@H](C(=O)NCC(O)CO)C3)c2c1Cl` (stereo partly drawn) [701,019], the “MIC, SA” value in the test with S. aureus ATCC 13709 is recorded as over 32. Besides, the “MIC Spn52” value against S. pneumoniae ATCC 51916 is recorded as over 32. In addition, in the test with E. coli 8 ATCC 25922, the MIC EC8 was over 32 µg/mL.

On to `CCc1[nH]c2nc(Sc3cnc4cccnc4c3)nc(N3C[C@H](N)[C@H](C(=O)NCc4cccnc4)C3)c2c1Cl` [701,020], for which the “MIC, SA” value with S. aureus ATCC 13709 is listed as 4. Further, the “MIC Spn52” value against S. pneumoniae ATCC 51916 is recorded as 2. The MIC EC8 with E. coli 8 ATCC 25922 is over 64 µg/mL.

As to `CCc1[nH]c2nc(Sc3cnc4cccnc4c3)nc(N3C[C@H](N)[C@H](C(=O)N[C@@H](CO)c4ccccc4)C3)c2c1Cl` [701,021], the “MIC, SA” value against S. aureus ATCC 13709 was determined as 4. In addition, the “MIC Spn52” value against S. pneumoniae ATCC 51916 came to 4. The same molecule gave an MIC EC8 in the test with E. coli 8 ATCC 25922 of over 64 µg/mL.

Turning to `CCc1[nH]c2nc(Sc3cnc4cccnc4c3)nc(N3C[C@@H](N)[C@@H](C(=O)N[C@@H](CO)c4ccccc4)C3)c2c1Cl` [701,022], the “MIC, SA” value against S. aureus ATCC 13709 is on record as 4. The “MIC Spn52” value against S. pneumoniae ATCC 51916 is 2. The MIC EC8 in the test on E. coli 8 ATCC 25922 was over 64 µg/mL.

Consider `CCc1[nH]c2nc(Sc3cnc4cccnc4c3)nc(N3C[C@H](N)[C@H](C(=O)N4CC[C@@H](N)C4)C3)c2c1Cl` [701,023], for which the “MIC, SA” value against S. aureus ATCC 13709 is over 64. For the same molecule, the “MIC Spn52” value in the test on S. pneumoniae ATCC 51916 is listed as over 64. The molecule further displayed an MIC EC8 against E. coli 8 ATCC 25922 of over 64 µg/mL.

As for `CCc1[nH]c2nc(Sc3cnc4cccnc4c3)nc(N3C[C@H](N)[C@H](C(=O)Nc4nccs4)C3)c2c1Cl` [701,024], the “MIC, SA” value in the test with S. aureus ATCC 13709 is 2. For the same molecule, the “MIC Spn52” value with S. pneumoniae ATCC 51916 was 2. This molecule also showed an MIC EC8 against E. coli 8 ATCC 25922 of over 64 µg/mL.

With `CCc1[nH]c2nc(Sc3cnc4ccc[n+]([O-])c4c3)nc(N3CC4CNC4C3)c2c1Cl` (stereo not drawn) [701,025], in the test on S. aureus ATCC 13709, the “MIC, SA” value is “<=0.5”. In addition, in the test on S. pneumoniae ATCC 51916, the “MIC Spn52” value was found to be 2. Moreover, the MIC EC8 in the test on E. coli 8 ATCC 25922 stood at 16 µg/mL (≈ 35.2 µM).

Turning to `CCc1[nH]c2nc(Sc3cnc4ccc[n+]([O-])c4c3)nc(N3CC4CCNC4C3)c2c1Cl` (stereo not drawn) [701,026], in the test on S. aureus ATCC 13709, the “MIC, SA” value was “<=0.5”. For the same molecule, the “MIC Spn52” value with S. pneumoniae ATCC 51916 is 1. In the test on E. coli 8 ATCC 25922, the MIC EC8 worked out at 8 µg/mL (≈ 17.1 µM).

For the molecule `CCc1[nH]c2nc(Sc3cnc4ccc[n+]([O-])c4c3)nc(N3CC(O)C3)c2c1Cl` [701,027], the “MIC, SA” value with S. aureus ATCC 13709 is recorded as “<=0.5”. In addition, in the test on S. pneumoniae ATCC 51916, the “MIC Spn52” value came out at 1. Further, in the test with E. coli 8 ATCC 25922, the MIC EC8 was over 64 µg/mL.

Turning to `CCNC(=O)NC1C2CN(c3nc(Sc4cnc5cccnc5c4)nc4[nH]c(CC)c(Cl)c34)CC21` (stereo not drawn) [701,028], the “MIC, SA” value in the test with S. aureus ATCC 13709 is “<=0.5”. Besides, the “MIC Spn52” value with S. pneumoniae ATCC 51916 is given as “<=0.5”. This molecule also yielded an MIC EC8 with E. coli 8 ATCC 25922 of over 64 µg/mL.

Take `CCc1[nH]c2nc(Oc3ccc4nccnc4c3)nc(N3CCOCC3)c2c1Cl` [701,029]: in the test on S. aureus ATCC 13709, the “MIC, SA” value worked out at 2. Also, in the test on S. pneumoniae ATCC 51916, the “MIC Spn52” value amounted to 4. In the test with E. coli 8 ATCC 25922, this molecule displayed an MIC EC8 of over 64 µg/mL.

Regarding `CCc1[nH]c2nc(Oc3cnc4c(c3)ncn4C)nc(Oc3ccc4nccnc4c3)c2c1Br` [701,030], the “MIC, SA” value with S. aureus ATCC 13709 is “<=0.5”. Further, in the test with S. pneumoniae ATCC 51916, the “MIC Spn52” value is listed as “<=0.5”. In addition, the MIC EC8 in the test with E. coli 8 ATCC 25922 was over 64 µg/mL.

In the case of `CCc1[nH]c2nc(Oc3cncc(C#N)c3)nc(N3CCOCC3)c2c1Cl` [701,031], the “MIC, SA” value in the test with S. aureus ATCC 13709 is recorded as “<=0.5”. Also, the “MIC Spn52” value against S. pneumoniae ATCC 51916 was 2. Moreover, the MIC EC8 with E. coli 8 ATCC 25922 is over 64 µg/mL.

Consider `CCc1[nH]c2nc(Oc3cnc4c(c3)ncn4C)nc(N3CC[C@@H](NC(C)=O)C3)c2c1Br` [701,032], for which the “MIC, SA” value against S. aureus ATCC 13709 is 8. The “MIC Spn52” value against S. pneumoniae ATCC 51916 turned out to be 8. Moreover, in the test on E. coli 8 ATCC 25922, the MIC EC8 is over 64 µg/mL.

Regarding `CCc1[nH]c2nc(Oc3cnc4c(c3)ncn4C)nc(N3CC[C@@H](N)C3)c2c1Cl` [701,033], the “MIC, SA” value in the test on S. aureus ATCC 13709 was over 64. In the test with S. pneumoniae ATCC 51916, the “MIC Spn52” value is over 64. In addition, the MIC EC8 with E. coli 8 ATCC 25922 was over 64 µg/mL.

Consider `CCc1[nH]c2nc(Oc3cnc4c(c3)ncn4C)nc(N3CC[C@@H](NC(C)=O)C3)c2c1Cl` [701,034], for which the “MIC, SA” value in the test on S. aureus ATCC 13709 was 4. In addition, in the test on S. pneumoniae ATCC 51916, the “MIC Spn52” value is 4. Moreover, the MIC EC8 against E. coli 8 ATCC 25922 is over 64 µg/mL.

Turning to `CCOC(=O)NCC1CCN(c2nc(Sc3cnc4cccnc4c3)nc3[nH]c(CC)c(Cl)c23)C1` (stereo not drawn) [701,035], the “MIC, SA” value in the test on S. aureus ATCC 13709 was “<=0.5”. In the test with S. pneumoniae ATCC 51916, the “MIC Spn52” value was “<=0.5”. This molecule also gave an MIC EC8 with E. coli 8 ATCC 25922 of over 64 µg/mL.

For the molecule `CCc1[nH]c2nc(Sc3cnc4ccc[n+]([O-])c4c3)nc(N3CC(N)C3)c2c1Cl` [701,036], in the test with S. aureus ATCC 13709, the “MIC, SA” value is listed as “<=0.5”. For the same molecule, the “MIC Spn52” value with S. pneumoniae ATCC 51916 was determined as 2. In the test with E. coli 8 ATCC 25922, this molecule returned an MIC EC8 of 16 µg/mL (≈ 37.4 µM).

As for `CCc1[nH]c2nc(Sc3cnc4ccc[n+]([O-])c4c3)nc(N(C)CCNC)c2c1Cl` [701,037], the “MIC, SA” value with S. aureus ATCC 13709 is recorded as 8. Further, in the test with S. pneumoniae ATCC 51916, the “MIC Spn52” value worked out at 16. This molecule also gave an MIC EC8 in the test with E. coli 8 ATCC 25922 of over 64 µg/mL.

Consider `CCc1[nH]c2nc(Sc3cnc4ccc[n+]([O-])c4c3)nc(N3CC4(CNC4)C3)c2c1Cl` [701,038], for which the “MIC, SA” value in the test with S. aureus ATCC 13709 was determined as 8. In addition, the “MIC Spn52” value with S. pneumoniae ATCC 51916 amounted to 32. The MIC EC8 in the test on E. coli 8 ATCC 25922 turned out to be 16 µg/mL (≈ 35.2 µM).

Regarding `CCc1[nH]c2nc(Sc3ccc4oc(C)nc4c3)nc(N3CC[C@@H](N)C3)c2c1Cl` [701,039], in the test on S. aureus ATCC 13709, the “MIC, SA” value is given as 8. The “MIC Spn52” value in the test on S. pneumoniae ATCC 51916 was 8. For the same molecule, the MIC EC8 in the test on E. coli 8 ATCC 25922 was over 64 µg/mL.

`CCc1[nH]c2nc(Sc3ccc4c(OC)cc[n+]([O-])c4c3)nc(N3CC[C@@H](N)C3)c2c1Cl` [701,040]: the “MIC, SA” value against S. aureus ATCC 13709 is recorded as “<=0.5”. The “MIC Spn52” value against S. pneumoniae ATCC 51916 was 4. In the test with E. coli 8 ATCC 25922, this molecule showed an MIC EC8 of 32 µg/mL (≈ 67.9 µM).

Take `CCc1[nH]c2nc(Oc3cncc(OC)c3)nc(N3CC4C(N)C4C3)c2c1Cl` (stereo not drawn) [701,041]: the “MIC, SA” value in the test on S. aureus ATCC 13709 worked out at 8. Moreover, the “MIC Spn52” value against S. pneumoniae ATCC 51916 came out at 16. In the test with E. coli 8 ATCC 25922, the MIC EC8 is over 32 µg/mL.
